{
  "source": "patent US11318153B2",
  "about": "“Method of using Neoandrographolide for lowering blood sugar, lowering blood lipid, improving liver function and improving renal function” (Bioalpha International Sdn. Bhd., priority 2018, dated 2022)",
  "type_in_all_cases": "in vivo",
  "key": {"[1]": {"test_system": "induced type 2 diabetic mice", "experiment": "Aspartate aminotransferase (AST) assay", "protocol": "(§1) Male ICR mice (19-21 g) were obtained from BioLASCO Taiwan Co., Ltd. The mice were kept in the animal center of Transworld University at a controlled temperature of 22±2° C., relative humidity 55±5%, and with 12 hour light/12 hour dark cycles for 1 week before the experiment. For the induction of type 2 diabetic mice (induction treatment group STZ), Nicotinamide (210 mg/kg b.w.) (Sigma, Saint Louis, Mo., USA), dissolved in saline was intraperitoneally injected into mice. After 15 minutes, the mice were administered with […] (STZ) (Sigma, 180 mg/kg bw, ip injection), which was dissolved in citrate buffer (pH 4.5) before use. The control group received both vehicles. During the experimental period, the animals' food intake and body weight were monitored once a week. In addition, the dosage of the Neoandrographolide (Sigma-Aldrich Chemical Co., Missouri, USA) of the present invention is: NeoL (low dose group of Neoandrographolide): Neoandrographolide 2.5 mg/kg; NeoM (middle dose group of Neoandrographolide): Neoandrographolide 5.0 mg/kg; NeoH (high dose group of Neoandrographolide): Neoandrographolide 10 mg/kg. The above active ingredient was dissolved in Tween 20 and adjusted to a 0.5% methylcellulose (CMC) solution. The blank group (Sham) was normal mice without induction treatment.\n(§2) After completion of the test, surviving animals were sacrificed; before necropsy, blood samples were collected for serum biochemistry.\n(§3) In this experimental example, the AST index of mice were recorded in a 42-day period after continuous administration for the blank group Sham, the induction treatment group STZ, Neoandrographolide low dose group NeoL (2.5 mg/kg), Neoandrographolide middle dose group NeoM (5.0 mg/kg) and Neoandrographolide high dose group NeoH (10 mg/kg)."}, "[2]": {"test_system": "induced type 2 diabetic mice", "experiment": "Serum creatinine assay", "conditions": "NeoL 2.5, NeoM 5.0, NeoH 10 mg/kg; after 42 days of continuous administration; vs induction treatment group STZ", "protocol": "(§4) Male ICR mice (19-21 g) were obtained from BioLASCO Taiwan Co., Ltd. The mice were kept in the animal center of Transworld University at a controlled temperature of 22±2° C., relative humidity 55±5%, and with 12 hour light/12 hour dark cycles for 1 week before the experiment. For the induction of type 2 diabetic mice (induction treatment group STZ), Nicotinamide (210 mg/kg b.w.) (Sigma, Saint Louis, Mo., USA), dissolved in saline was intraperitoneally injected into mice. After 15 minutes, the mice were administered with […] (STZ) (Sigma, 180 mg/kg bw, ip injection), which was dissolved in citrate buffer (pH 4.5) before use. The control group received both vehicles. During the experimental period, the animals' food intake and body weight were monitored once a week. […]\nas §3, with “serum creatine” for “AST”, “was” for “were”"}, "[3]": {"test_system": "induced type 2 diabetic mice", "experiment": "Triglyceride assay", "protocol": "as §1, §2\nas §3, with “triglyceride values and the total cholesterol in blood” for “AST index”"}, "[4]": {"test_system": "induced type 2 diabetic mice", "experiment": "Glycated hemoglobin (HbA1c) assay", "conditions": "NeoL 2.5, NeoM 5.0, NeoH 10 mg/kg; after 42 days of continuous administration; vs induction treatment group STZ", "protocol": "as §4\nas §3, with “glycated hemoglobin (HbA1c) values” for “AST index”"}, "[5]": {"test_system": "induced type 2 diabetic mice", "experiment": "Fasting blood glucose assay", "conditions": "NeoL 2.5, NeoM 5.0, NeoH 10 mg/kg; seven days after administration; vs induction treatment group STZ", "protocol": "as §4\nas §3, with “fasting blood glucose values” for “AST index of mice”, “period” for “period after continuous administration”"}, "[6]": {"test_system": "induced type 2 diabetic mice", "experiment": "Water intake test in induced type 2 diabetic mice", "conditions": "high dose 10 mg/kg and low dose 2.5 mg/kg; 40-day period; vs induction treatment group STZ", "protocol": "as §4\nIn general, diabetic patients usually have clinical symptoms of “drinking more water.” In this experimental example, the water intake was recorded in a 40-day period for the blank group Sham, the induction treatment group STZ, Neoandrographolide low dose group NeoL (2.5 mg/kg), Neoandrographolide middle dose group NeoM (5.0 mg/kg) and Neoandrographolide high dose group NeoH (10 mg/kg)."}, "[7]": {"test_system": "induced type 2 diabetic mice", "experiment": "Uric acid assay", "conditions": "NeoL 2.5, NeoM 5.0, NeoH 10 mg/kg; after 42 days of continuous administration; vs induction treatment group STZ", "protocol": "as §4\nas §3, with “serum uric acid” for “AST”, “was” for “were”"}, "[8]": {"test_system": "induced type 2 diabetic mice", "experiment": "Oral glucose tolerance test", "conditions": "NeoL 2.5, NeoM 5.0, NeoH 10 mg/kg; within 0 to 3 hours after glucose 2 g/kg; vs induction treatment group STZ", "protocol": "as §1, with “treatment. […]” for “treatment.”"}, "[9]": {"test_system": "induced type 2 diabetic mice", "experiment": "Total cholesterol assay", "protocol": "as §4\nas §3, with “triglyceride values and the total cholesterol in blood” for “AST index”"}, "[10]": {"conditions": "NeoL 2.5, NeoM 5.0, NeoH 10 mg/kg, after 42 days of continuous administration, vs induction treatment group STZ"}},
  "data": [
    {"smiles": "C=C1CC[C@@H]2[C@](C)(CO[C@@H]3O[C@H](CO)[C@@H](O)[C@H](O)[C@H]3O)CCC[C@@]2(C)[C@@H]1CCC1=CCOC1=O", "note": "[Neoandrographolide]", "values": [
      {"measurement": "AST values, low dose group", "setting": "[1]; NeoL 2.5 mg/kg, 42 days, compared among the three dose groups", "result": "most significant reduction"},
      {"measurement": "AST index", "setting": "[1]; [10]", "result": "slightly lower"},
      {"measurement": "minimum effective dose, improving liver function (AST)", "setting": "[1]; judged from the experiment", "result": "around 2.5 mg/kg"},
      {"measurement": "serum creatinine index", "setting": "[2]", "result": "significantly lower"},
      {"measurement": "dose dependence of triglyceride-lowering effect", "setting": "[3]; 2.5 to 10 mg/kg, 42 days", "result": "dose-dependent"},
      {"measurement": "minimum effective dose, triglyceride-lowering effect", "setting": "[3]; 42 days", "result": 2.5, "unit": "mg/kg"},
      {"measurement": "triglyceride values", "setting": "[3]; [10]", "result": "lower"},
      {"measurement": "triglyceride values, middle and high dose groups", "setting": "[3]; NeoM 5.0 mg/kg and NeoH 10 mg/kg, 42 days, compared among the three dose groups", "result": "lowest triglyceride values"},
      {"measurement": "HbA1c values", "setting": "[4]", "result": "significantly lower"},
      {"measurement": "fasting blood glucose values", "setting": "[5]", "result": "significantly lower"},
      {"measurement": "amount of water intake", "setting": "[6]", "result": "significantly reduced"},
      {"measurement": "serum uric acid index", "setting": "[7]", "result": "significantly lower"},
      {"measurement": "blood glucose levels in oral glucose tolerance test", "setting": "[8]", "result": "significantly lower"},
      {"measurement": "minimum effective dose, lowering total cholesterol in the blood", "setting": "[9]; 42 days", "result": 2.5, "unit": "mg/kg"},
      {"measurement": "total cholesterol values in the blood", "setting": "[9]; [10]", "result": "lower"}
    ]}
  ]
}
